What was measured:
JAK1 = target: T1, JAK1 (Homo sapiens, UniProt P23458); assay: In vitro activity test of JAK1 kinase (Caliper EZ Reader conversion assay); type: biochemical; details: enzyme activity, 10 concentrations from 1000 nM, 3-fold dilution
T1 construct: purchased Carna 08-114
Protocol: (§1) In Vitro Activity Test of JAK1 and JAK2 Kinases
(§2) • Centrifuge (manufacturer: Eppendorf, model: 5430) • ELISA Instrument (Manufacturer: Perkin Elmer, Model: Caliper EZ Reader 1I) • Echo 550 (Manufacturer: Labcyte, Model: Echo 550)
(§3) (1) Prepare 1 Kinase buffer.
(§4) (2) Compound concentration gradient preparation: The test compound was tested at 1000 nM, 3-fold dilution, 10 concentrations, two-well assay, and configured to a 100-fold final concentration in a 384-well plate. 250 nl of the test compound was then transferred to the 384 reaction plate using Echo550. 250 nl of 100% DMSO was added to each of the negative and positive control wells.
(§5) (3) Prepare 2.5 times the final concentration of kinase solution with 1×Kinase buffer.
(§6) (4) Add 10 μL of 2.5 times the final concentration of kinase solution to the compound wells and 10 μL of 1×Kinase buffer to the negative control wells.
(§7) (5) Centrifuge at 1000 rpm for 30 seconds, mix well with shaking, and incubate at room temperature for 10 minutes.
(§8) (6) Prepare a 25/15-fold final concentration of mixture of ATP and Kinase substrate with 1×Kinase buffer.
(§9) (7) Add 15 μL of a mixture of 25/15 times the final concentration of ATP and substrate to start the reaction.
(§10) (8) Centrifuge the 384-well plate at 1000 rpm for 30 seconds, mix well with shaking, and incubate at room temperature for an appropriate amount of time.
(§11) (9) Stop the kinase reaction by adding 30 μL of termination solution, centrifuge at 1000 rpm for 30 seconds, and mix well with shaking.
(§12) (10) Read the conversion rate with Caliper EZ Reader.
(§13) where: Conversion %_sample is the conversion rate reading of the sample-, Conversion %_min: the average value of the negative control wells, representing the conversion reading of the wells without enzyme activity: Conversion %-max: the average value of the positive control wells, representing the conversion reading of the wells without compound inhibition.
(§14) The log value of concentration was used as the X-axis and the percentage inhibition as the Y-axis, and the function of the analytical software GraphPad Prism 5; log(inhibitor) vs. response -Variable slope, was used to lit dose-effect curves to obtain the IC50) values of each compound on enzyme activity.
(§15) The formula is Y=Bottom+(Top-Bottom)/(1+10^((LogIC50-X)*HillSlope))
(§16) The 1C50 data are specified in Table 1.

JAK2 = target: T2, JAK2 (Homo sapiens, UniProt O60674); assay: In vitro activity test of JAK2 kinase (Caliper EZ Reader conversion assay); type: biochemical; details: enzyme activity, 10 concentrations from 1000 nM, 3-fold dilution
T2 construct: purchased Carna 08-045
T2 sequence (O60674 whole entry, species assumed): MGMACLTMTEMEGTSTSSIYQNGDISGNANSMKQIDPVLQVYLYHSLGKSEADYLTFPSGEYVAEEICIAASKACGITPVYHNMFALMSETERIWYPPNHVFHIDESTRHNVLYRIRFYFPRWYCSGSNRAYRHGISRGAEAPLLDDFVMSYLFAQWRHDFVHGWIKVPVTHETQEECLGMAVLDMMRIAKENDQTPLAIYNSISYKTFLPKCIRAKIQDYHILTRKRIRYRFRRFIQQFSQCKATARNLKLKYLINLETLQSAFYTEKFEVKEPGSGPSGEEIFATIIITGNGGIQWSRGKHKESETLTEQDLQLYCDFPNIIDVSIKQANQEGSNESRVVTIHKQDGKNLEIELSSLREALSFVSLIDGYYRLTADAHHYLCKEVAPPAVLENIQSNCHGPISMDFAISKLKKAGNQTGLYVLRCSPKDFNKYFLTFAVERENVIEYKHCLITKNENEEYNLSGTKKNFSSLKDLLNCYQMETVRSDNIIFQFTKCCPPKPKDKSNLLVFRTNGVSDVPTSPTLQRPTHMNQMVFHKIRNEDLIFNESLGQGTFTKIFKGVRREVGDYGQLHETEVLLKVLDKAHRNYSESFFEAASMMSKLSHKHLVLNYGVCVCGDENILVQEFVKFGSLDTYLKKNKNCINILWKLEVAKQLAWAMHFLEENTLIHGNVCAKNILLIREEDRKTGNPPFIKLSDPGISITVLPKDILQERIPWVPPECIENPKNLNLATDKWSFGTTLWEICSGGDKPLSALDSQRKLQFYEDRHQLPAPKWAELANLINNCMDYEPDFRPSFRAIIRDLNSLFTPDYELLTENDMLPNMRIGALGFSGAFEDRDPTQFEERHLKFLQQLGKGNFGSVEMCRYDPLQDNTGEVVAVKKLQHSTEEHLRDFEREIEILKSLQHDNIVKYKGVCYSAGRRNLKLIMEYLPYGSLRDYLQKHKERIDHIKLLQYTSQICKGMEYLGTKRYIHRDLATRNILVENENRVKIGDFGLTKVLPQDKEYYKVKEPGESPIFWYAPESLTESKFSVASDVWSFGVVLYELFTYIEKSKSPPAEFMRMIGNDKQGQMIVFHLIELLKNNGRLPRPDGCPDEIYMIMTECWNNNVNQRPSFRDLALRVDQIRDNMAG
Protocol: as §1, §2, §3, §4, §5, §6, §7, §8, §9, §10, §11, §12, §13, §14, §15, §16

T1 sequence (P23458 whole entry, species assumed): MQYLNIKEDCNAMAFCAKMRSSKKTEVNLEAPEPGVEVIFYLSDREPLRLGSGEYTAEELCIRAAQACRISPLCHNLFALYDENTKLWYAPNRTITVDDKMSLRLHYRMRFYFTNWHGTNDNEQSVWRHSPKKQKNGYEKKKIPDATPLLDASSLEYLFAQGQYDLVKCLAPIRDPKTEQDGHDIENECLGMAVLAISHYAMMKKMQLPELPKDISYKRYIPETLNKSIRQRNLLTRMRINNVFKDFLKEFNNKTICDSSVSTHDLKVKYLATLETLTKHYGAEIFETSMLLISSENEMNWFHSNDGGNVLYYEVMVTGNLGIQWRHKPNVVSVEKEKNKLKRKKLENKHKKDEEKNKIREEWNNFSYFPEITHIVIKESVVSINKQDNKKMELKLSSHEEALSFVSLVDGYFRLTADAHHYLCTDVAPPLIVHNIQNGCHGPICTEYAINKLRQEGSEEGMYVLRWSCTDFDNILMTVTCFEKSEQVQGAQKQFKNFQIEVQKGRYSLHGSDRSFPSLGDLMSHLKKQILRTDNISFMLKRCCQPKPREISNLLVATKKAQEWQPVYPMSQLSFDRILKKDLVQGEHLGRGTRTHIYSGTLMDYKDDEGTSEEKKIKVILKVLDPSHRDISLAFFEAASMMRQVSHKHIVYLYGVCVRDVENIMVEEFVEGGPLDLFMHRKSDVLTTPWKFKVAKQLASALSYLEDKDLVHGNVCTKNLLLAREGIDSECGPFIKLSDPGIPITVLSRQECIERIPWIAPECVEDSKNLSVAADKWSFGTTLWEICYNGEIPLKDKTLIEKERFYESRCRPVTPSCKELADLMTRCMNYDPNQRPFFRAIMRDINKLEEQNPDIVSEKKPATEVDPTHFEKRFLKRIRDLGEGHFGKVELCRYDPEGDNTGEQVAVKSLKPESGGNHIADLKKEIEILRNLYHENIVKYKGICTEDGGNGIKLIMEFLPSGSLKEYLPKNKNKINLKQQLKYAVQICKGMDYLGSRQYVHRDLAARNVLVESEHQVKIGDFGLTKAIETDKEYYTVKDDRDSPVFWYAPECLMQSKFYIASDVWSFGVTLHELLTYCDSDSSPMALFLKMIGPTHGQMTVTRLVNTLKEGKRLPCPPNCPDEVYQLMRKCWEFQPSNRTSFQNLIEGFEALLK

Row | SMILES | IC50 (JAK1) [nM] | IC50 (JAK2) [nM]
1 | N#C[C@H]1CC[C@H](n2c(-c3ccc(O)cc3F)nc3cnc4[nH]ccc4c32)CC1 (stereo in doubt) [LXS39, trans-4-(2-(2-Fluoro-4-hydroxyphenyl)imidazo[4,5-d]pyrrolo[2,3-b]pyridin-1(6H)-yl)cyclohexanecarbonitrile] | 10 to 100 | 100 to 1000
2 | N#CCN1CCC(n2c(-c3ccc(CO)o3)nc3cnc4[nH]ccc4c32)C1 (stereo not shown) [LXS52, 2-(3-(2-(5-(hydroxymethyl)furan-2-yl)imidazo[4,5-d]pyrrolo[2,3-b]pyridin-1(6H)-yl)pyrrolidin-1-yl)acetonitrile] | 100 to 1000 | 10 to 100
3 | CCCS(=O)(=O)N1CCC(n2c(-c3ccccc3O)nc3cnc4[nH]ccc4c32)C1 (stereo not shown) [LXS30, 2-(1-(1-(propylsulfonyl)pyrrolidin-3-yl)-1,6-dihydroimidazo[4,5-d]pyrrolo[2,3-b]pyridin-2-yl)phenol] | 100 to 1000 | 100 to 1000
4 | O=C(NCC(F)(F)F)N1CCC(n2c(-c3ncc[nH]3)nc3cnc4[nH]ccc4c32)C1 (stereo in doubt) [LXS24, (R)-3-(2-(1H-imidazol-2-yl)imidazo[4,5-d]pyrrolo[2,3-b]pyridin-1(6H)-yl)-N-(2,2,2-trifluoroethyl)pyrrolidine-1-carboxamide] | 100 to 1000 | 100 to 1000
5 | C[C@@H](O)c1nc2cnc3[nH]ccc3c2n1C1CCN(S(=O)(=O)c2cccs2)C1 (stereo partly drawn) [LXS12, (1R)-1-(1-(1-(thiophen-2-ylsulfonyl)pyrrolidin-3-yl)-1,6-dihydroimidazo[4,5-d]pyrrolo[2,3-b]pyridin-2-yl)ethan-1-ol] | 10 to 100 | 100 to 1000
6 | Cc1ccc(-c2nc3cnc4[nH]ccc4c3n2C2CCC(C#N)CC2)s1 (stereo in doubt) [LXS28, trans-4-(2-(2-Methylthiophen-5-yl)imidazo[4,5-d]pyrrolo[2,3-b]pyridin-1(6H)-yl)cyclohexanecarbonitrile] | 10 to 100 | 10 to 100
7 | C[C@@H](O)c1nc2cnc3[nH]ccc3c2n1C1CCN(C(=O)NCC(F)(F)F)C1 (stereo in doubt) [LXS20, (R)-3-(2-((R)-1-Hydroxyethyl)imidazo[4,5-d]pyrrolo[2,3-b]pyridin-1(6H)-yl)-N-(2,2,2-trifluoroethyl)pyrrolidine-1-carboxamide] | 100 to 1000 | 100 to 1000
8 | C[C@@H](O)c1nc2cnc3[nH]ccc3c2n1[C@H]1CCN(CC(F)(F)C(F)(F)C(F)(F)F)C1 [LXS100, (R)-1-(1-((S)-1-(2,2,3,3,4,4,4-Heptafluorobutyl)pyrrolidin-3-yl)imidazo[4,5-d]pyrrolo[2,3-b]pyridin-2-yl)ethanol] | < 10 | 100 to 1000
9 | CCCS(=O)(=O)N1CCC(n2c(-c3ncc[nH]3)nc3cnc4[nH]ccc4c32)C1 (stereo not shown) [LXS18, 2-(1H-imidazol-2-yl)-1-(1-(propylsulfonyl)pyrrolidin-3-yl)-1,6-dihydroimidazo[4,5-d]pyrrolo[2,3-b]pyridine] | 10 to 100 | 10 to 100
10 | Cc1ccc(S(=O)(=O)N2CCC(n3c([C@@H](C)O)nc4cnc5[nH]ccc5c43)C2)cc1 (stereo partly drawn) [LXS08, (1R)-1-(1-(1-tosylpyrrolidin-3-yl)-1,6-dihydroimidazo[4,5-d]pyrrolo[2,3-b]pyridin-2-yl)ethan-1-ol] | 100 to 1000 | 100 to 1000
11 | CCS(=O)(=O)N1CCC(n2c([C@@H](C)O)nc3cnc4[nH]ccc4c32)C1 (stereo partly drawn) [LXS04, (1R)-1-(1-(1-(ethylsulfonyl)pyrrolidin-3-yl)-1,6-dihydroimidazo[4,5-d]pyrrolo[2,3-b]pyridin-2-yl)ethan-1-ol] | 10 to 100 | 100 to 1000
12 | C[C@@H](O)c1nc2cnc3[nH]ccc3c2n1-c1ccc(C#N)cc1 [LXS54, (R)-4-(2-(1-Hydroxyethyl)imidazo[4,5-d]pyrrolo[2,3-b]pyridin-1(6H)-yl)benzonitrile] | 100 to 1000 | 100 to 1000
13 | C[C@@H](O)c1nc2cnc3[nH]ccc3c2n1C1CCN(C(=O)C2(C#N)CC2)C1 (stereo partly drawn) [LXS61, 1-(3-(2-((R)-1-Hydroxyethyl)imidazo[4,5-d]pyrrolo[2,3-b]pyridin-1(6H)-yl)pyrrolidin-1-carbonyl)cyclopropanecarbonitrile] | 100 to 1000 | 100 to 1000
14 | CS(=O)(=O)c1ccc(C2Nc3cnc4[nH]ccc4c3N2C2CCC(C#N)CC2)cc1 (stereo in doubt) [LXS44, trans-4-(2-(4-(Methylsulfonyl)phenyl)-2,3-dihydroimidazo[4,5-d]pyrrolo[2,3-b]pyridin-1(6H)-yl)cyclohexanecarbonitrile] | 10 to 100 | 10 to 100
15 | CCCS(=O)(=O)N1CCC(n2c([C@@H](C)O)nc3cnc4[nH]ccc4c32)C1 (stereo in doubt) [LXS21, (R)-1-(1-((R)-1-(Propylsulfonyl)pyrrolidin-3-yl)-1,6-dihydroimidazo[4,5-d]pyrrolo[2,3-b]pyridin-2-yl)ethanol] | 100 to 1000 | 100 to 1000
16 | C[C@@H](O)c1nc2cnc3[nH]ccc3c2n1C1CCN(S(=O)(=O)c2ccccc2F)C1 (stereo partly drawn) [LXS07, (1R)-1-(1-(1-((2-fluorophenyl)sulfonyl)pyrrolidin-3-yl)-1,6-dihydroimidazo[4,5-d]pyrrolo[2,3-b]pyridin-2-yl)ethan-1-ol] | 100 to 1000 | 100 to 1000

More lines, now with the values ahead:

Row | IC50 (JAK1) [nM] | IC50 (JAK2) [nM] | SMILES
17 | < 10 | 100 to 1000 | C[C@@H](O)c1nc2cnc3[nH]ncc3c2n1[C@H]1CCN(CCCC#N)C1 [LXS85, 4-((S)-3-(2-((R)-1-Hydroxyethyl)imidazo[4,5-d]pyrazolo[3,4-b]pyridin-1(6H)-yl)pyrrolidin-1-yl)butanenitrile]
18 | < 10 | 100 to 1000 | C[C@@H](O)c1nc2cnc3[nH]ncc3c2n1[C@@H]1CN(CCCC#N)CC1F (stereo partly drawn) [LXS93, 4-((4R)-3-Fluoro-4-(2-((R)-1-hydroxyethyl)imidazo[4,5-d]pyrazolo[3,4-b]pyridin-1(6H)-yl)pyrrolidin-1-yl)butanenitrile]
19 | < 10 | 100 to 1000 | CC(C(=O)NCC(F)(F)F)N1CC[C@H](n2c([C@@H](C)O)nc3cnc4[nH]ccc4c32)C1 (stereo partly drawn) [LXS75, 2-((S)-3-(2-((R)-1-Hydroxyethyl)imidazo[4,5-d]pyrrolo[2,3-b]pyridin-1(6H)-yl)pyrrolidin-1-yl)-N-(2,2,2-trifluoroethyl)propanamide]
20 | < 10 | 100 to 1000 | C[C@@H](O)c1nc2cnc3[nH]ccc3c2n1[C@H]1CCN(CC(=O)NCC(F)(F)F)C1 [LXS74, 2-((S)-3-(2-((R)-1-Hydroxyethyl)imidazo[4,5-d]pyrrolo[2,3-b]pyridin-1(6H)-yl)pyrrolidin-1-yl)-N-(2,2,2-trifluoroethyl)acetamide]
21 | 10 to 100 | 10 to 100 | N#CCn1cc(-n2c(-c3ccc(CO)o3)nc3cnc4[nH]ccc4c32)cn1 [LXS81, 2-(4-(2-(5-(Hydroxymethyl)furan-2-yl)imidazo[4,5-d]pyrrolo[2,3-b]pyridin-1(6H)-yl)-1H-pyrazol-1-yl)acetonitrile]
22 | 100 to 1000 | 10 to 100 | N#CCCCn1cc(-n2c(C3CC3)nc3cnc4[nH]ccc4c32)cn1 [LXS108, 4-(4-(2-cyclopropylimidazo[4,5-d]pyrrolo[2,3-b]pyridin-1(6H)-yl)-1H-pyrazol-1-yl)butanenitrile]
23 | 10 to 100 | 100 to 1000 | C[C@@H](O)c1nc2cnc3[nH]ncc3c2n1[C@H]1C[C@@H](CO)N(CCCC#N)C1 [LXS94, 4-((2S,4S)-4-(2-((R)-1-Hydroxyethyl)imidazo[4,5-d]pyrazolo[3,4-b]pyridin-1(6H)-yl)-2-(hydroxymethyl)pyrrolidin-1-yl)butanenitrile]
